Results reported in patent US20070184047A1, “Nitrophenyls and related compounds and thimerosal for the inhibition of immune related cell or tissue destruction” (Canadian Blood Services, priority 2005, published 2007).

Experiments:
[1] = test system: FcγR-mediated phagocytosis of anti-D-coated RBCs by monocyte-macrophages (Mφ); assay: Monocyte monolayer assay (MMA): inhibition of phagocytosis of anti-D-sensitized RBCs; format: cell-based, human; details: for inhibition of phagocytosis over the test concentration range: 10^−4 down to 10^−9 mol per L
Source text: The test concentration of immunoglobulin (anti-D or IVIg) was chosen after titration of each immunoglobulin on its own to inhibit FcγR and phagocytosis of anti-D-coated RBCs using a monocyte monolayer assay (MMA) as previously described in Rampersad et al., supra and Foo et al., supra. […] The two controls used in these experiments were chemical alone and immunoglobulin alone. For each experiment, the controls and a mixture of chemical and immunoglobulin in phosphate buffered saline (PBS) pH 7.4, were placed in separate tubes (Sarstedt) and gently rotated for 24 hours at room temperature. The solutions were then transferred to respective cellulose dialysis tubing membranes with a molecular size cut off of 12,000 daltons (Sigma-Aldrich) that had been cut to length and washed as per the manufacturer's directions by boiling in a solution containing one mmol/L ethylenediaminetetraacetic acid (EDTA) (BioShop) and 2% sodium bicarbonate (Fisher Scientific) in PBS. Dialysis was performed in large beakers of PBS for 5-7 days at 4° C. with daily changes of PBS.
Preparation of anti-D-sensitized R2R2 red blood cells (RBCs) has been previously described in Rampersad et al., supra and Foo et al., supra. Briefly, RBCs were resuspended in PBS to 5% concentration, mixed with an equal volume of human polyclonal anti-D (Immucor, Tex., Houston, USA) in PBS solution, and then incubated for 1 hour at 37° C. and 5% CO2. After which, the sensitized RBCs were washed four times in PBS and resuspended to 2.5% in PBS. […] The MMA was performed as previously described in Foo et al., supra, without modification.
A phagocytic index was calculated as described in Rampersad et al., supra; Foo et al., supra; and Branch et al., British Journal of Haematology, 1984; 56:19-29, as the unitless number of antibody-sensitized RBCs phagocytosed per 100 Mφ. Residual and phagocytosed RBCs were distinguished by relative differences in refracted light under phase-contrast microscopy. Percent inhibition was calculated as previously described^2 taking the phagocytic control index to be 100. […] Statistical significance of inhibition between treated and untreated Mφ were analysed using Student t-test and Analysis of Variance (ANOVA), and/or, General Linear Model (GLM) Analysis and Student-Newman-Keuls test. A p value of <0.05 was considered to be significant.
As previously described with minor modification, Rampersad et al., Transfusion, 2005; 45:384:93, an aliquot of R2R2 RBCs was removed from storage in Alsever's solution, Walker et al., American Association of Blood Banks, 11th ed., Bethesda, 1993, at 4° C. and washed three times in PBS without calcium or magnesium (Gibco/Invitrogen) at 2000 r.p.m. for 7 minutes (Sorvall RT 6000D centrifuge, Mandel Scientific Company Inc., Guelph, Ontario, Canada). The RBCs were resuspended in PBS to 5 percent concentration, mixed with an equal volume of human anti-D in PBS solution, and then incubated for 1 hour at 37° C. and 5 percent CO2 (Sanyo CO2 incubator), after which the sensitized RBCs were washed four times in PBS at 2000 r.p.m. for 7 minutes and resuspended to 2.5 percent in PBS.
As previously described with slight modification to improve the quality of the Mφ monolayer, Rampersad et al, supra, whole venous blood was drawn from donors into tubes (Vacutainer, ACD solution A, Becton Dickinson Vacutainer Systems, Franklin Lakes, N.J.) and mixed with an equal volume of PBS.

PBMCs = assay: FACS annexin V-FITC/PI analysis for viable and apoptotic PBMCs; format: cell-based; details: for effect on PBMC viability or apoptosis: 10^−4 to 10^−9 mol per L, 1 hour; for necrotic cell counts: PBMCs
Source text: Fluorescence-activated cell sorting (FACS) analysis (flow cytometry) and a TACS annexin V-fluorescein isothiocyanate (FITC) apoptosis detection kit (R&D Systems, Minneapolis, Minn.) were used to determine if disulfide-containing compounds benzoylmethyl methyl disulfide and phenyl methyl disulfide exert effects on viability or apoptosis of PBMCs. Briefly, PBMCs were isolated from whole blood as previously outlined and treated with culture medium or chemical from 10^−4 to 10^−9 mol per L for 1 hour at 37° C. and 5 percent CO2. They were then washed three times in PBS and collected by centrifugation at 12,000 r.p.m. for 5 to 10 minutes before being incubated in culture medium for 2 hours. After washing the cells once in cold PBS, according to the manufacturer's instructions, cells were then incubated with annexin V-FITC incubation reagent for 15 minutes at room temperature to stain membrane exposed phosphatidylserine, indicating early programmed cell death or apoptosis. Cells were then stained with propidium iodide (PI), specific for nonviable cells, to identify late apoptotic cells. FACS was performed with two-color analysis on a flow cytometer (FACSCalibur E4795, Becton Dickinson, Mississauga, Ontario, Canada) calibrated with fluorescent beads (CaliBRITE, BD Biosciences, San Jose, Calif.) and computer software for data analyses (Cell Quest, BD Biosciences).

[2] = test system: immune-mediated platelet destruction (anti-platelet antibody); assay: Model of immune-mediated platelet destruction, treatment prior to anti-platelet antibody; format: in vivo, mice; details: administered prior to anti-platelet antibody
Experimental: Referring to FIG. 5, unlike the model in FIG. 4A-4C, the treatment was administered prior to injecting the mice with the anti-platelet antibody.

[3] = test system: immune-mediated platelet destruction (anti-platelet antibody); assay: Model of immune-mediated platelet destruction, treatment at day 2; format: in vivo, mice; details: single dose at day 2 instead of IVIg, anti-platelet antibody continued daily
Experimental: Referring now to FIGS. 4A through 4C, shown are the results using a model of immune-mediated platelet destruction wherein the anti-platelet antibody is administered on day 0 and daily thereafter. The platelet count fell abruptly after 24 hours (day 1) indicating platelets were destroyed after the antibody was recognized and bound to the platelets. […] In FIGS. 4B and 4C at day 2, instead of IVIg, two mice were administered a single dose of thimerosal or a nitrophenyl compound p-nitrophenyl methyl disulfide (G-B) (FIG. 4C).

Molecule	inhibition of phagocytosis over the test concentration range [1]	inhibition of phagocytosis ([1]; 10^−4 mol per L) [%]	effect on loss of platelets following anti-platelet antibody [2]	further results
CC(O)c1ccccc1 (stereo not shown) [1-phenylethanol, reference compound]	None of these compounds were able to inhibit phagocytosis	–	–	–
O=C(CS)c1ccccc1 [benzoylmethyl mercaptan]	ineffective	–	–	–
CSSCC(=O)c1ccccc1 [benzoylmethyl methyl disulfide]	inhibited phagocytosis in a dose-dependent manner	62	–	effect on PBMC viability or apoptosis (PBMCs): do not significantly affect PBMC viability or apoptosis
O=[N+]([O-])c1ccccc1 [nitrobenzene, reference compound]	None of these compounds were able to inhibit phagocytosis	–	–	–
CSCc1ccc([N+](=O)[O-])cc1 [p-nitrobenzyl methyl sulfide]	did not inhibit phagocytosis	–	–	–
O=[N+]([O-])c1ccc(O)cc1 [p-nitrophenol, reference compound]	None of these compounds were able to inhibit phagocytosis	–	–	–
CSSc1ccc([N+](=O)[O-])cc1 [p-nitrophenyl methyl disulfide]	inhibited macrophage phagocytosis in vitro in a dose-dependent manner	98.6	little effect on the subsequent loss of platelets	platelet count after treatment [3]: the platelet count began to rise; inhibition of phagocytosis ([1]; 10^−7 mol per L): 29%
CSSc1ccccc1 [phenyl methyl disulfide]	inhibition of phagocytosis in a dose-dependent manner	54	–	effect on PBMC viability or apoptosis (PBMCs): do not significantly affect PBMC viability or apoptosis; necrotic cell counts (PBMCs; 10^−4 mol per L): 2.36%; necrotic cell counts (PBMCs; 10^−5 mol per L): 1.05%
C[CH2][Hg][S]c1ccccc1C(=O)[O-].[Na+] [thimerosal]	–	–	little effect on the subsequent loss of platelets	platelet count after treatment [3]: the platelet count began to rise; inhibition of phagocytosis ([1]; used alone at 10^−3M, undialyzed): 100%; inhibition of phagocytosis after dialysis ([1]; used alone at 10^−5M or 10^−3M, after dialysis): no longer inhibits phagocytosis after dialysis; inhibition of phagocytosis ([1]; used alone at 10^−5M, undialyzed): 100%
p-nitrophenylethanol	None of these compounds were able to inhibit phagocytosis	–	zero platelet loss	–
